Laboratory results as given in patent US7807656B2, “Pharmaceutical applications of hyaluronic acid preparations” (priority 2001, dated 2010).

System: adipose tissue
Experiment: addition of hyaluronic acid to liposuction infiltration solution
Assay type: in vivo
Details: added to infiltration solution
Description: Hyaluronic acid can also be added to infiltration solutions which are injected into the tissue prior to a liposuction. These infiltration solutions are usually isotonic or hypotonic salt solutions which can contain additives, for example blood vessel-contracting and/or pain-reducing additives, such as noradrenaline, adrenaline, lidocaine, prilocalne, bicarbonate, corticosteroids, etc. Hyaluronic acid (crosslinked and/or uncrosslinked hyaluronic acid) is advantageously added to these solutions at concentrations of from 0.001 to 1.0% (wt/vol), preferably of from 0.01 to 0.5% (wt/vol), e.g. of about 0.025% (wt/vol). […] Furthermore, structures in the adipose tissue which are worth conserving, such as blood vessels, nerves or connective tissue bands, are spared. Adding the hyaluronic acid also makes the process of liposuction markedly more atraumatic when compared with the conventional procedure. […] This also leads to a reduction in the tissue trauma. All in all, adding hyaluronic acid to the infiltration solution protects the remaining adipose tissue in the body and results in the adipose tissue aspirate being withdrawn in a gentler manner.
This is of importance insofar as adipose tissue aspirates can be used as endogenous transplants. […]

## hyaluronic acid
  survival of fat cells in the aspirate: improves the survival of fat cells
Aspirate transplanted
  growth of transferred tissue at the recipient site: grow more strongly
